Results: patent US12516179B2, “Chitosan-based nanocomposite as an antimicrobial agent and corrosion inhibitor” (priority 2019, dated 2026)

How the values were obtained:
zebrafish embryos [1] = test: Zebrafish embryo acute toxicity assay (CNLS-NCs); type: in vivo, zebrafish (AB strain); conditions: exposure 24-72 hpf
Description: We used wild type zebrafish embryos (AB strain) in our study. For detailed information about our zebrafish aquatic system (Aquaneering, USA), original source of the zebrafish, zebrafish culture, mating protocol, and animal protocol guidelines, the reader is advised to visit the following articles. For the acute toxicity assay, at 24-hours post fertilization (hpf), embryos were dechorionated as described in. Briefly, E3 media were removed and 0.5 mg/mL of pronase enzyme (Sigma, Germany) in 10 mL PTU-E3 media was added and incubated for 10 min at 28° C. until the chorion become soft. Then, embryos were washed 2-3 times with PTU-E3 medium until the embryos were released and free from the chorion. […] The mortality rate and teratogenicity (morphological deformities) were observed and recorded at 2-time point intervals (48 and 72-hpf) using a standard stereo microscope (Zeiss, Germany). The teratogenic effects of both nanoparticles were determined based on the normal embryo morphology of the negative control (FIG. 9A), and abnormal morphology [defects in body size, heart and yolk edema, scoliosis, pigmentation, and movement problem (FIG. 9B)] of the positive control. Teratogenicity was scored at 72-hpf by calculating the number of dead and deformed embryos over the total number of […] embryos used in each concentration (50 embryos). […]

zebrafish embryos [2] = test: Zebrafish embryo acute toxicity assay (CZNCs); type: in vivo, zebrafish (Danio rerio), AB strain
Description: Fertilized embryos of wild type AB zebrafish strains (Danio rerio) were collected in E3 egg medium in Petri dishes. At 3 hours post-fertilization (hpf), unfertilized and abnormal embryos were discarded. The fertilized embryos were dechorionated with pronase at 24-hpf and retained in 6 well-plates containing E3 egg medium. Next, E3 egg medium was replaced by the different concentrations of drugs to be tested.
We investigated the toxicology of CZNCs nanomaterial with an acute toxicity assay adapted by the Organization of Economic Co-operation and Development (OECD) guideline for testing chemical toxicity (No 203 and 236) and modified it for nanoparticle testing. The purified (acetic acid-free) lyophilized CZNCs nanomaterial was weighted and dissolved in DI water, then sonicated in a water bath for 15 min for several cycles until a complete homogeneous solution is achieved. Next, 24-hpf healthy dechorionated embryos were transferred to 6 well-plate containing the following treatment dissolved in E3 egg medium: (i) four different concentrations (25, 50, 100, 250 μg/mL) of CZNCs (ii) the positive control DEAB ([…]), (iii) the negative control 0.1% DMSO and then incubated at 28.5° C. for an additional 72 h until their age reached 96-hpf. Cumulative survival and mortality were recorded at 3-time point intervals (48, 72, and 96 hpf), In addition, all embryos were observed every day for any teratogenic abnormalities. […] A total of 100 embryos were used for each tested dose condition of the CZNCs, and 20 embryos for DEAB and DMSO concentrations. The toxicity assessment was expressed as a percentage of survived embryos for 96-hpf. Teratogenic score was presented as average standard error of mean. This value was calculated at every stage as the sum of different teratogenic phenotypes, expressed in percentage respect to the total number of possible teratogenic phenotypes at that precise stage of observation.

[3] = test system: SRB induced corrosion on carbon steel (SS400); test: EIS of carbon steel (SS400) coupons incubated in SRB media with CLNC / CS@LS; conditions: SRB with 5% GA
Description: The carbon steel coupons were incubated in liquid medium containing enriched SRB biomass (250 mg·VSS/L) along with modified Postage's C medium in simulated inject seawater. […] 200 ml plastic bottles were used for the incubation experiments. The coupons were incubated without CLNC to evaluate the SRB induced corrosion on carbon steel. In next stage, the optimum conditions of the nanocomposite have been verified by using different ratio nanocomposites as well as optimum concentration has been tested by using different concentrations of optimum ratio CLNC. Then the optimum concentration of CLNC were added in the incubating mixture to evaluate the corrosion inhibition imparted by the nanocomposite at different time intervals. The abiotic conditions were made by incubating coupons in same manner without any SRB and nanocomposite to differentiate the SRB induced corrosion from chemical corrosion. All incubation experiments were performed in anaerobic chamber to maintain the anaerobic condition throughout the experiments. […]
EIS analysis was carried out using Gamry potentiostat (Gamry 600+, FA, USA) using the SRB treated carbon steel coupon as a working electrode, calomel and graphite disk electrodes as reference and counter electrodes, respectively. […] The EIS measurements were recorded at an open circuit potential with a 10 mV sinusoidal signal over the frequency range of 0.01-10^5 Hz Before the EIS measurements, steady state conditions were achieved by keeping the whole setup at open circuit potential (OCP) for 30 min. Potentiodynamic polarization curves were measured by scanning the potential from −250 mV to +250 mV vs OCP at a sweep rate of 0.167 mV/s. The experimental results were analyzed by Gamry Echem Analyst software version 7.05.
The mixed SRB culture was enriched from sludge biomass obtained from an offshore oil filed in Qatar. […] The optimum concentration of CS@LS was evaluated in the range of 0-1000 μg·mL^−1 CS@LS and EIS analysis was performed after 10 days of incubation. […]

Row | Compound | LC50 (zebrafish embryos [1]) [nM] | LOEC (zebrafish embryos [2]; 96-hpf, =>20% mortality) [µM] | cumulative mortality (zebrafish embryos [2]; DEAB 1.0 μM, 96-hpf) [%] | cumulative mortality (zebrafish embryos [2]; DEAB at NOEC (0.1), 96-hpf) [%] | LC50 (zebrafish embryos [2]; sigmoidal curve, 95% confidence limit) [nM] | bacterial growth [3] | Rct ([3]; 15 days) | Rf ([3]; 15 days)
1 | CCN(CC)c1ccc(C=O)cc1 [DEAB, Diethylaminobenzaldehyde] | 2500 | 1.0 | 60 | 10 | 940 |  |  | 
2 | O=CCCCC=O [GA, glutaraldehyde] |  |  |  |  |  | complete bacterial growth can be inhibited | 158.8 Ω·cm^2 | 136.4 Ω·cm^2
